Structures are written as SMILES.

This assay relates to Bovine cardiac myofibrils. The assay can be described thus: In vitro model of dose-dependent myofibril ATPase modulation (AC1.4, pyruvate kinase/lactate dehydrogenase-coupled ATPase assay at pCa25). The format is biochemical. Conditions: concentration at which ATPase activity was 1.4-fold higher than the bottom of the dose curve, mean of a minimum of two independent tests. The method, boiled down:
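Detergent-skinned bovine cardiac myofibrils (typically 0.25-1.0 mg/ml) in Ca-buffered (EGTA/CaCl2) PK/LDH-coupled ATPase assay: 12 mM K-PIPES pH 6.80, 2 mM MgCl2, 1 mM ATP, 1 mM DTT, 0.5 mM NADH, 1.5 mM PEP. Hydrolysis followed at 340 nm; dose response fit to 4-parameter equation; AC1.4 is mean of ≥2 tests.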

`O=C(N[C@@H](c1ccc(C(F)(F)F)cc1F)C1COC1)[C@H]1C[C@H]2C[C@H]2N1C(=O)c1cc(C2CC2)ccn1` [Example 718, (1R,3R,5R)-2-((4-cyclopropyl-2-pyridinyl)carbonyl)-N-((R)-(2-fluoro-4-(trifluoromethyl)phenyl)(3-oxetanyl)methyl)-2-azabicyclo[3.1.0]hexane-3-carboxamide] showed an AC1.4 of 6.2625 µM.

As to `N#CC1CN(S(=O)(=O)N2CCC[C@H](C(=O)N3CCC[C@@H]3C(=O)NCc3c(F)cccc3Cl)C2)C1` [Example 719, N-(2-chloro-6-fluorobenzyl)-1-(((3S)-1-((3-cyano-1-azetidinyl)sulfonyl)-3-piperidinyl)carbonyl)-D-prolinamide], the AC1.4 is 6.2628 µM. Next, `O=C(NCc1ccc(C(F)(F)F)cc1)[C@H]1CCCN1C(=O)[C@H]1CCCN(S(=O)(=O)N2CCC2Cc2ccccc2)C1` (stereo partly drawn) [Example 720, (2R)-1-((3S)-1-((2-benzylazetidin-1-yl)sulfonyl)piperidine-3-carbonyl)-N-(4-(trifluoromethyl)benzyl)pyrrolidine-2-carboxamide]: 6.27 µM; `CS(=O)(=O)c1cccc(C(=O)N2CCC[C@@H]2C(=O)N[C@@H](c2ccc(C(F)F)cc2F)C2CC2)c1` [Example 721, N-((R)-cyclopropyl(4-(difluoromethyl)-2-fluorophenyl)methyl)-1-(3-(methylsulfonyl)benzoyl)-D-prolinamide]: 6.2885 µM; `C[C@H](C(=O)NCc1ccnc(C(F)(F)F)c1)N(C)C(=O)c1cccc(S(=O)(=O)N2CC(C#N)C2)c1` [Example 722, 3-((3-cyano-1-azetidinyl)sulfonyl)-N-methyl-N-((1R)-1-methyl-2-oxo-2-(((2-(trifluoromethyl)-4-pyridinyl)methyl)amino)ethyl)benzamide]: 6.3585 µM.

In turn, `O=C(N[C@@H](c1cc(F)c(Cl)cc1F)C1COC1)[C@H]1C[C@H](O)CN1C(=O)c1ccnc(C(F)(F)F)c1` [Example 723, (4S)-N-((R)-(4-chloro-2,5-difluorophenyl)(3-oxetanyl)methyl)-4-hydroxy-1-((2-(trifluoromethyl)-4-pyridinyl)carbonyl)-D-prolinamide] yielded an AC1.4 of 6.4425 µM.

In the case of `CS(=O)(=O)N1CCN[C@H](C(=O)N2[C@@H](C(=O)N[C@@H](c3cc(F)c(Cl)cc3F)C3CC3)C[C@H]3C[C@H]32)C1` [Example 724, (1R,3R,5R)-N-((R)-(4-chloro-2,5-difluorophenyl)(cyclopropyl)methyl)-2-(((2S)-4-(methylsulfonyl)-2-piperazinyl)carbonyl)-2-azabicyclo[3.1.0]hexane-3-carboxamide], the AC1.4 stood at 6.475 µM. As to `N#CC1CN(S(=O)(=O)c2cccc(C(=O)N3CCC[C@@H]3C(=O)NCc3ncc(C(F)(F)F)cn3)c2)C1` [Example 725, 1-((3-((3-cyano-1-azetidinyl)sulfonyl)phenyl)carbonyl)-N-((5-(trifluoromethyl)-2-pyrimidinyl)methyl)-D-prolinamide], the AC1.4 stood at 6.507 µM. As for `O=C(N[C@@H](c1ccc(C(F)(F)F)cc1F)C1CC1)[C@H]1CCCN1C(=O)c1cccc(-c2ccsc2)c1` [Example 726, N-((R)-cyclopropyl(2-fluoro-4-(trifluoromethyl)phenyl)methyl)-1-(3-(3-thiophenyl)benzoyl)-D-prolinamide], the figure is 6.547 µM.

Consider `Cc1ccc(C(=O)N2[C@@H](C(=O)N[C@@H](c3ccc(C(F)(F)F)cc3F)C3COC3)C[C@H]3C[C@H]32)cc1S(C)(=O)=O` [Example 727, (1R,3R,5R)-N-((R)-(2-fluoro-4-(trifluoromethyl)phenyl)(3-oxetanyl)methyl)-2-(4-methyl-3-(methylsulfonyl)benzoyl)-2-azabicyclo[3.1.0]hexane-3-carboxamide], for which the AC1.4 worked out at 6.61 µM. As for `CS(=O)(=O)c1cccc(C(=O)N2[C@@H](C(=O)N[C@@H](c3ccc(F)cc3F)C3COC3)C[C@H]3C[C@H]32)c1` [Example 728, (1R,3R,5R)-N-((R)-(2,4-difluorophenyl)(3-oxetanyl)methyl)-2-(3-(methylsulfonyl)benzoyl)-2-azabicyclo[3.1.0]hexane-3-carboxamide], the figure is 6.701 µM; as for `CC(NC(=O)[C@H]1CCCN1C(=O)[C@H]1CCCN(S(=O)(=O)N2CC(C#N)C2)C1)c1ccc(F)cc1` (stereo partly drawn) [Example 729, 1-(((3S)-1-((3-cyano-1-azetidinyl)sulfonyl)-3-piperidinyl)carbonyl)-N-((1R)-1-(4-fluorophenyl)ethyl)-D-prolinamide,1-(((3S)-1-((3-cyano-1-azetidinyl)sulfonyl)-3-piperidinyl)carbonyl)-N-((1S)-1-(4-fluorophenyl)ethyl)-D-prolinamide], 6.7185 µM. As for `CC1(O)CN(S(=O)(=O)N2CCC[C@H](C(=O)N3CCC[C@@H]3C(=O)NCc3ccc(C(F)(F)F)cc3)C2)C1` [Example 730, 1 (((3S)-1-((3-hydroxy-3-methyl-1-azetidinyl)sulfonyl)-3-piperidinyl)carbonyl)-N-(4-(trifluoromethyl)benzyl)-D-prolinamide], the figure is 6.7333 µM. In turn, `CS(=O)(=O)c1cc(C(=O)N2[C@@H](C(=O)N[C@@H](c3cc(F)c(C(F)(F)F)cc3F)C3CC3)C[C@@H]3C[C@@H]32)ccn1` [Example 731, (1S,3R,5S)-N-((R)-cyclopropyl(2,5-difluoro-4-(trifluoromethyl)phenyl)methyl)-2-((2-(methylsulfonyl)-4-pyridinyl)carbonyl)-2-azabicyclo[3.1.0]hexane-3-carboxamide] returned an AC1.4 of 6.763 µM. As for `CS(=O)(=O)c1cccc(C(=O)N2CC[C@H]2C(=O)N[C@@H](c2cc(F)c(Cl)cc2F)C2CC2)c1` [Example 732, (2S)-N-((R)-(4-chloro-2,5-difluorophenyl)(cyclopropyl)methyl)-1-(3-(methylsulfonyl)benzoyl)-2-azetidinecarboxamide], the figure is 6.7885 µM; as for `N#CC1CN(S(=O)(=O)N2CCC[C@H](C(=O)N3CCC[C@@H]3C(=O)N[C@@H](CO)c3ccc(Cl)cc3)C2)C1` [Example 733, N-((1R)-1-(4-chlorophenyl)-2-hydroxyethyl)-1-(((3S)-1-((3-cyano-1-azetidinyl)sulfonyl)-3-piperidinyl)carbonyl)-D-prolinamide], 6.8025 µM; as for `CC(C)(C)OC1CN(S(=O)(=O)N2CCC[C@H](C(=O)N3CCC[C@@H]3C(=O)NCc3ccc(C(F)(F)F)cc3)C2)C1` [Example 734, 1-(((3S)-1-((3-tert-butoxy-1-azetidinyl)sulfonyl)-3-piperidinyl)carbonyl)-N-(4-(trifluoromethyl)benzyl)-D-prolinamide], 6.866 µM.

Molecule `CCCCCC1CN(S(=O)(=O)N2CCC[C@H](C(=O)N3CCC[C@@H]3C(=O)NCc3ccc(C(F)(F)F)cc3)C2)C1` [Example 735, 1-(((3S)-1-((3-pentyl-1-azetidinyl)sulfonyl)-3-piperidinyl)carbonyl)-N-(4-(trifluoromethyl)benzyl)-D-prolinamide] had an AC1.4 of 7.0265 µM.

The molecule `Cc1cc(C(=O)N2[C@@H](C(=O)N[C@@H](c3cc(F)c(Cl)cc3F)C3CC3)C[C@H]3C[C@H]32)ccn1` [Example 736, (1R,3R,5R)-N-((R)-(4-chloro-2,5-difluorophenyl)(cyclopropyl)methyl)-2-((2-methyl-4-pyridinyl)carbonyl)-2-azabicyclo[3.1.0]hexane-3-carboxamide] showed an AC1.4 of 7.041 µM.

Consider `O=C(N[C@@H](c1ccc(C(F)(F)F)cc1F)C1CC1)[C@H]1CCCN1C(=O)c1cccc(-c2cn[nH]c2)c1` [Example 737, N-((R)-cyclopropyl(2-fluoro-4-(trifluoromethyl)phenyl)methyl)-1-(3-(1H-pyrazol-4-yl)benzoyl)-D-prolinamide], for which the AC1.4 was 7.053 µM. `CC(C)(C)c1cc(C(=O)N2[C@@H](C(=O)N[C@@H](c3ccc(Cl)cc3F)C3COC3)C[C@H]3C[C@H]32)ccn1` [Example 738, (1R,3R,5R)-N-((R)-(4-chloro-2-fluorophenyl)(3-oxetanyl)methyl)-2-((2-(2-methyl-2-propanyl)-4-pyridinyl)carbonyl)-2-azabicyclo[3.1.0]hexane-3-carboxamide] returned an AC1.4 of 7.0545 µM. Next, `O=C(NCc1ccc(C(F)(F)F)cc1)[C@H]1CCCN1C(=O)[C@H]1CCCN(S(=O)(=O)N2CC(C3CCOC3)C2)C1` (stereo partly drawn) [Example 739, (2R)-1-((3S)-1-((3-(tetrahydrofuran-3-yl)azetidin-l-yl)sulfonyl)piperidine-3-carbonyl)-N-(4-(trifluoromethyl)benzyl)pyrrolidine-2-carboxamide]: 7.1325 µM. Next, `CC(C)(C)[C@@H](NC(=O)[C@H]1CCCN1C(=O)[C@H]1CCCN(S(=O)(=O)N2CC(C#N)C2)C1)c1ccc(C(F)(F)F)cc1` [Example 740, 1-(((3S)-1-((3-cyano-1-azetidinyl)sulfonyl)-3-piperidinyl)carbonyl)-N-((1R)-2,2-dimethyl-1-(4-(trifluoromethyl)phenyl)propyl)-D-prolinamide]: 7.156 µM. As for `Cc1ccc(C(F)(F)F)c(CNC(=O)[C@H]2CCCN2C(=O)[C@H]2CCCN(S(=O)(=O)N3CC(C#N)C3)C2)c1` [Example 741, 1-(((3S)-1-((3-cyano-1-azetidinyl)sulfonyl)-3-piperidinyl)carbonyl)-N-(5-methyl-2-(trifluoromethyl)benzyl)-D-prolinamide], the figure is 7.1615 µM. `CS(=O)(=O)c1cccc(C(=O)N2CCC[C@@H]2C(=O)N[C@@H]2CCc3cc(C(F)(F)F)ccc32)c1` [Example 742, 1-(3-(methylsulfonyl)benzoyl)-N-((1R)-5-(trifluoromethyl)-2,3-dihydro-1H-inden-1-yl)-D-prolinamide] registered an AC1.4 of 7.2 µM.

The values above are taken from patent US11780826B2 (Amgen Inc., priority 2017, dated 2023).
